Legend:
3T3-L1 [1] = assay: Induction of 2-deoxy-D-[2,6-3H]glucose uptake in differentiated mouse 3T3L1 cells at 200 uM after 60 mins by liquid scintillation counting relative to insulin; type: functional
3T3-L1 [2] = assay: Induction of 2-deoxy-D-[2,6-3H]glucose uptake in differentiated mouse 3T3L1 cells at 200 uM after 60 mins by liquid scintillation counting relative to basal uptake; type: functional

Row | SMILES | Activity (3T3-L1 [1]) [%] | fold change (FC) (3T3-L1 [2])
1 | O[C@H]1[C@H](O)[C@H](O)[C@@H](O)[C@H](O)[C@H]1O | 64 | 1.4 - 2.8
2 | OC1[C@@H](O)[C@H](O)C[C@@H](O)[C@@H]1O (stereo partly specified) | -106 | 0.5
3 | CCCC(=O)O[C@H]1[C@H](O)[C@@H](O)[C@@H](O)[C@H](O)[C@@H]1O | 19 | 1.3
4 | CCCCO[C@H]1[C@@H](O)[C@H](O)[C@H](O)[C@@H](O)[C@@H]1O | 22 | 1.4
5 | CCCCO[C@H]1[C@H](O)[C@H](O)[C@@H](O)[C@H](O)[C@H]1O | 8 | 1.4 - 1.5
6 | O[C@@H]1[C@@H](O)[C@@H](O)C[C@H](O)[C@H]1O | 22 | 1.3
7 | O[C@H]1[C@H](O)[C@@H](O)[C@H](O)[C@H](O)[C@H]1O | 43 | 1.5 - 3
8 | O[C@H]1[C@H](O)[C@H](O)C[C@H](O)[C@H]1O | 40 | 1.3

Reference: ChEMBL document CHEMBL3865811, “Synthesis and biological activities of d-chiro-inositol analogues with insulin-like actions” (2016)
